Test results published in patent EP0639971B1, “THERAPEUTIC COMBINATIONS” (priority 1992, dated 1993).

Assays:
Assay type in all cases: cell-based
HIV = assay: In vitro passage experiments: acquisition of resistance to oxathiolane nucleosides
[1] = test system: zidovudine-resistant HIV strain (HIVRTMC); assay: Antiviral sensitivity (IC50) of zidovudine-resistant HIV strain; conditions: Human immunodeficiency virus 1; HIVRTMC before introduction of mutation
[2] = test system: zidovudine-resistant HIV strain (HIVRTMC) with M184 to V mutation; assay: Antiviral sensitivity (IC50) of zidovudine-resistant HIV strain with M184 to V mutation introduced; conditions: Human immunodeficiency virus 1
[3] = test system: HIV-1 population containing four mutations in the HIV-RT which confer zidovudine resistance; assay: Passage of zidovudine-resistant HIV-1 in cell culture with increasing concentrations of Chloro-TIBO; antiviral sensitivity (IC50)
[4] = test system: zidovudine-resistant virus with Y181 to C, together with M184 to V; assay: Antiviral sensitivity (IC50) of zidovudine-resistant HIV strain with Y181 to C and M184 to V mutations introduced

Row | Structure (SMILES) | acquisition of resistance by HIV (HIV) | IC50 [1] | IC50 [2] | IC50 ([3]; Human immunodeficiency virus 1, after five passages with Chloro-TIBO) | IC50 ([3]; Human immunodeficiency virus 1, before passage with Chloro-TIBO) | increase of sensitivity of the virus population to zidovudine ([3]; after five passages with increasing concentrations of Chloro-TIBO) | sensitivity / resistance of the resulting mutant virus strain [4] | IC50 ([4]; Human immunodeficiency virus 1)
1 | Nc1ccn([C@H]2CS[C@@H](CO)O2)c(=O)n1 [3TC, (-)-2',3'-dideoxy-3'-thiacytidine] | rapid resistance | – | – | – | – | – | – | –
2 | Nc1nc(=O)n([C@@H]2CS[C@H](CO)O2)cc1F [FTC, (-)-2'3'-dideoxy-5-fluoro-3'-thiacytidine] | rapid resistance | 640 nM | > 500000 nM | – | – | – | – | –
3 | Cc1cn([C@H]2C[C@H](N=[N+]=[N-])[C@@H](CO)O2)c(=O)[nH]c1=O [zidovudine, 3'-azido-3'-deoxythymidine] | – | 1260 nM | 170 nM | < 100 nM | ~2000 nM | about twenty fold | completely sensitive | 40 nM
